Data published in ChEMBL document CHEMBL4043204, “meso-Dihydroguaiaretic acid derivatives with antibacterial and antimycobacterial activity” (Bioorg Med Chem, 2017).
Converted amounts (≈) assume the structure as drawn. The source made the active and inactive calls. No cut-off for these calls is given here.

How the values were obtained:
Acinetobacter baumannii = experiment: Antibacterial activity against carbapenem-resistant Acinetobacter baumannii (12-666) assessed as inhibition of microbial growth up to 50 ug/ml incubated for 24 hrs by microdilution assay; type: functional
Escherichia coli [1] = experiment: Antibacterial activity against extended-spectrum beta-lactamase-positive Escherichia coli (14-2081) assessed as inhibition of microbial growth up to 50 ug/ml incubated for 24 hrs by microdilution assay; type: functional
Escherichia coli [2] = experiment: Antibacterial activity against oxacillin-resistant Escherichia coli OXA-48 assessed as inhibition of microbial growth up to 50 ug/ml incubated for 24 hrs by microdilution assay; type: functional
Pseudomonas aeruginosa = experiment: Antibacterial activity against carbapenem-resistant Pseudomonas aeruginosa (13-1391) assessed as inhibition of microbial growth up to 50 ug/ml incubated for 48 hrs by microdilution assay; type: functional
Klebsiella pneumoniae [3] = experiment: Antibacterial activity against NDM-1 positive Klebsiella pneumoniae (14-3335) assessed as inhibition of microbial growth up to 50 ug/ml incubated for 24 hrs by microdilution assay; type: functional
Klebsiella pneumoniae [4] = experiment: Antibacterial activity against extended-spectrum beta-lactamase-positive Klebsiella pneumoniae (14-2081) assessed as inhibition of microbial growth up to 50 ug/ml incubated for 24 hrs by microdilution assay; type: functional
Providencia rettgeri = experiment: Antibacterial activity against NDM-1 positive Providencia rettgeri assessed as inhibition of microbial growth up to 50 ug/ml incubated for 24 hrs by microdilution assay; type: functional
[5] = system: Stenotrophomonas maltophilia; experiment: Antibacterial activity against trimethoprim-sulfamethoxazole-resistant Stenotrophomonas maltophilia assessed as inhibition of microbial growth up to 50 ug/ml incubated for 24 hrs by microdilution assay; type: functional
[6] = system: Mycobacterium tuberculosis; experiment: Antimycobacterial activity against Mycobacterium tuberculosis H37Rv ATCC 27294 assessed as inhibition of mycobacterial growth incubated for 2 weeks by MABA method; type: functional; conditions: for MIC: Mycobacterium tuberculosis, H37Rv ATCC 27294, 336 h
[7] = system: Mycobacterium tuberculosis; experiment: Antimycobacterial activity against Mycobacterium tuberculosis H37Rv ATCC 27294 assessed as inhibition of mycobacterial growth up to 50 ug/ml incubated for 2 weeks by MABA method; type: functional
Enterococcus faecium = experiment: Antibacterial activity against vancomycin-resistant Enterococcus faecium (10-984) assessed as inhibition of microbial growth incubated for 24 hrs by microdilution assay; type: functional
Staphylococcus aureus = experiment: Antibacterial activity against methicillin-resistant Staphylococcus aureus (14-2095) assessed as inhibition of microbial growth incubated for 24 hrs by microdilution assay; type: functional
Vero = experiment: Cytotoxicity against African green monkey Vero cells assessed as reduction in cell viability incubated for 24 hrs by trypan blue staining based assay; conditions: Chlorocebus sabaeus
[8] = system: Staphylococcus epidermidis; experiment: Antibacterial activity against linezolid-resistant Staphylococcus epidermidis (14-583) assessed as inhibition of microbial growth incubated for 24 hrs by microdilution assay; type: functional
[9] = system: Staphylococcus haemolyticus; experiment: Antibacterial activity against linezolid-resistant Staphylococcus haemolyticus 2975 assessed as inhibition of microbial growth incubated for 24 hrs by microdilution assay; type: functional; conditions: Staphylococcus haemolyticus, 2975, 24 h
[10] = Selectivity index, ratio of IC50 for cytotoxicity against African green monkey Vero cells to MIC for antibacterial activity against methicillin-resistant Staphylococcus aureus (14-2095)
[11] = Selectivity index, ratio of IC50 for cytotoxicity against African green monkey Vero cells to MIC for Mycobacterium tuberculosis H37Rv ATCC 27294; type: toxicity, cell-based; conditions: read-out: Selectivity Index

Compound | Activity (Acinetobacter baumannii) | Activity (Escherichia coli [1]) | Activity (Escherichia coli [2]) | Activity (Pseudomonas aeruginosa) | Activity (Klebsiella pneumoniae [3]) | Activity (Klebsiella pneumoniae [4]) | Activity (Providencia rettgeri) | Activity [5] | -logMIC [6] | growth inhibition (GI) [7] | MIC (Enterococcus faecium) [µg/mL] | MIC (Staphylococcus aureus) [µg/mL] | IC50 (Vero) [µg/mL] | MIC [8] [µg/mL] | MIC [9] [µg/mL] | Selectivity Index [10] | MIC [6] [µg/mL] | selectivity ratio [11]
COc1cc(C[C@@H](C)[C@@H](C)Cc2ccc(OC(=O)c3ccc(Br)cc3)c(OC)c2)ccc1OC(=O)c1ccc(Br)cc1 | inactive | inactive | inactive | inactive | inactive | inactive | inactive | inactive | 4.09 | inactive | – | – | – | – | – | – | – | –
COc1cc(C[C@@H](C)[C@@H](C)Cc2ccc(OCCN3CCOCC3)c(OC)c2)ccc1OCCN1CCOCC1 | inactive | inactive | inactive | inactive | inactive | inactive | inactive | inactive | – | – | > 50 | 50 | 71.6 (≈ 129 µM) | > 50 | > 50 | 1.43 | 25 (≈ 44.9 µM) | 2.87
COc1cc(C[C@@H](C)[C@@H](C)Cc2ccc(OC(=O)c3ccccc3)c(OC)c2)ccc1OC(=O)c1ccccc1 | inactive | inactive | inactive | inactive | inactive | inactive | inactive | inactive | 4.14 | inactive | – | – | – | – | – | – | – | –
COc1cc(C[C@@H](C)[C@@H](C)Cc2ccc(OCCN3CCCCC3)c(OC)c2)ccc1OCCN1CCCCC1 | inactive | inactive | inactive | inactive | inactive | inactive | inactive | inactive | – | – | 50 | 50 | 73.2 (≈ 132 µM) | > 50 | 50 | 1.46 | 3.12 (≈ 5.65 µM) | 23.4
CCCCCCCCCCCCCCCCCC(=O)Oc1ccc(C[C@H](C)[C@H](C)Cc2ccc(O)c(OC)c2)cc1OC (racemic) | inactive | inactive | inactive | inactive | inactive | inactive | inactive | inactive | 3.84 | inactive | – | – | – | – | – | – | – | –
COc1cc(C[C@@H](C)[C@@H](C)Cc2ccc(OCCN3CCCCC3)c(OC)c2)ccc1O (racemic) | inactive | inactive | inactive | inactive | inactive | inactive | inactive | inactive | – | – | 50 | 50 | 62.6 (≈ 142 µM) | 50 | 50 | 1.25 | 12.5 (≈ 28.3 µM) | 5.01
COc1cc(C[C@@H](C)[C@@H](C)Cc2ccc(OC(C)=O)c(OC)c2)ccc1O (racemic) | inactive | inactive | inactive | inactive | inactive | inactive | inactive | inactive | 4.07 | – | > 50 | 25 | 112 (≈ 300 µM) | > 50 | > 50 | 4.46 | 50 (≈ 134 µM) | 2.23
CCCCCCCC/C=C\CCCCCCCC(=O)Oc1ccc(C[C@H](C)[C@H](C)Cc2ccc(O)c(OC)c2)cc1OC (racemic) | inactive | inactive | inactive | inactive | inactive | inactive | inactive | inactive | 4.51 | inactive | – | – | – | – | – | – | – | –
CCCC(=O)Oc1ccc(C[C@H](C)[C@H](C)Cc2ccc(O)c(OC)c2)cc1OC (racemic) | inactive | inactive | inactive | inactive | inactive | inactive | inactive | inactive | 3.94 | inactive | – | – | – | – | – | – | – | –
COc1cc(C[C@@H](C)[C@@H](C)Cc2ccc(OC(=O)c3cnccn3)c(OC)c2)ccc1O (racemic) | inactive | inactive | inactive | inactive | inactive | inactive | inactive | inactive | 4.07 | – | > 50 | 50 | 43.3 (≈ 99.3 µM) | > 50 | > 50 | 0.87 | 50 (≈ 115 µM) | 0.86
CCCCCCCCCCCCCCCC(=O)Oc1ccc(C[C@H](C)[C@H](C)Cc2ccc(O)c(OC)c2)cc1OC (racemic) | inactive | inactive | inactive | inactive | inactive | inactive | inactive | inactive | 4.54 | inactive | > 50 | 50 | – | > 50 | > 50 | – | – | –
COc1cc(C[C@@H](C)[C@@H](C)Cc2ccc(OC)c(OC)c2)ccc1O (racemic) | inactive | inactive | inactive | inactive | inactive | inactive | inactive | inactive | 3.94 | – | > 50 | 25 | 47.8 (≈ 139 µM) | > 50 | > 50 | 1.91 | 50 (≈ 145 µM) | 0.96
C[C@H]1COc2c(N3CCN(C)CC3)c(F)cc3c(=O)c(C(=O)O)cn1c23.C[C@H]1COc2c(N3CCN(C)CC3)c(F)cc3c(=O)c(C(=O)O)cn1c23.O [LEVOFLOXACIN] | – | – | – | – | – | – | – | – | – | – | > 50 | 3.12 | 293 | 12.5 | 12.5 | 93.81 | 0.078 | –
COc1ccc(C[C@@H](C)[C@@H](C)Cc2ccc(OC)c(OC)c2)cc1OC [TERAMEPROCOL] | inactive | inactive | inactive | inactive | inactive | inactive | inactive | inactive | 4.35 | inactive | – | – | – | – | – | – | – | –
